How the values were obtained:
A549 (lung carcinoma) = test: MTT cell proliferation assay, A549; assay type: cell-based; details: Homo sapiens, A549, 72 h of exposition, read-out: Anti-proliferative activity IC50, A549
Procedure: (§1) Tests to determine the effects of the synthesized compounds on cell viability and the half-maximal inhibitory concentration (IC50) were performed using the MTT assay, as described in our prior work.
(§2) The target compounds 5, 6, 8–12, 14, 15, 17–22 and 24–26 were tested for antiproliferative activity against six cancer cell lines: K562 (chronic myelogenous leukemia), HL-60 (promyelocytic leukemia), MCF-7 (breast adenocarcinoma), HepG2 (human liver cancer), A549 (lung carcinoma) and OKP-GS (renal cell carcinoma). The RPMI 1788 cells (B lymphocyte, human) were used as a control to evaluate the system toxicity of the studied compounds to normal cells. Sorafenib, nilotinib and lapatinib were utilized as reference standards for comparison.

[1] = system: RPMI 1788 cells (B lymphocyte, human); test: MTT cell proliferation assay, normal RPMI 1788 cells; assay type: cell-based; details: normal human lymphoblastoid cells RPMI 1788, 72 h of exposition, read-out: Anti-proliferative activity IC50, RPMI 1788
Procedure: as §1, §2

[2] = system: HL-60 (promyelocytic leukemia); test: MTT cell proliferation assay, HL-60; assay type: cell-based; details: Homo sapiens, HL-60, 72 h of exposition, read-out: Anti-proliferative activity IC50, HL-60
Procedure: as §1, §2

[3] = system: OKP-GS (renal cell carcinoma); test: MTT cell proliferation assay, OKP-GS; assay type: cell-based; details: 72 h of exposition, read-out: Anti-proliferative activity IC50, OKP-GS
Procedure: as §1, §2

[4] = system: cancer cell lines (K562, HL-60, MCF-7, HepG2, A549, OKP-GS); test: MTT cell proliferation assay, statements over the whole cell line panel; assay type: cell-based; details: statement over the cell line panel, studied concentration range up to 50 µM
Procedure: as §1, §2

[5] = system: MCF-7 (breast adenocarcinoma); test: MTT cell proliferation assay, MCF-7; assay type: cell-based; details: Homo sapiens, MCF7, MCF-7, 72 h of exposition, read-out: Anti-proliferative activity IC50, MCF-7
Procedure: as §1, §2

[6] = system: K562 (chronic myelogenous leukemia); test: MTT cell proliferation assay, K562; assay type: cell-based; details: Homo sapiens, K562, 72 h of exposition, read-out: Anti-proliferative activity IC50, K562
Procedure: as §1, §2

[7] = system: HepG2 (human liver cancer); test: MTT cell proliferation assay, HepG2; assay type: cell-based; details: Homo sapiens, HepG2, 72 h, HepG2, 72 h of exposition, read-out: Anti-proliferative activity IC50, HepG2
Procedure: as §1, §2

Structure (SMILES) | IC50 (A549 (lung carcinoma)) [µM] | IC50 [1] [µM] | IC50 [2] [µM] | IC50 [3] [µM] | IC50 ([4]; read-out: Antiproliferative activity (IC50) over the studied cell cultures) [µM] | IC50 [5] [µM] | IC50 [6] [µM] | IC50 [7] [µM] | melting point [°C] | Antiproliferative activity (IC50) over the studied cell cultures [4]
Cc1cn(-c2cc(NC(=O)c3ccc(C)c(Nc4nccc(-c5cccnc5)n4)c3)cc(C(F)(F)F)c2)cn1 [Nilotinib, reference compound] | > 50 | 19.32 ± 0.09 | 22.7 ± 4.76 | 2.76 ± 0.06 | 2 to 27 | 4.2 ± 0.14 | < 0.1 | 4.81 ± 0.21 | – | –
CNC(=O)c1cc(Oc2ccc(NC(=O)c3cccc(C(=O)Nc4cccc(C(F)(F)F)c4)c3)cc2)ccn1 [Compound 6, N1-(4-((2-(methylcarbamoyl)pyridin-4-yl)oxy)phenyl)-N3-(3-(trifluoromethyl)phenyl)isophthalamide] | > 50 | 13 ± 2.99 | > 50 | > 50 | – | 41.1 ± 5.06 | > 50 | > 50 | 258 to 260 | lack of sensitivity of the cancer cells in the studied concentration range

Reference: PMC10046946, “Novel Phthalic-Based Anticancer Tyrosine Kinase Inhibitors: Design, Synthesis and Biological Activity” (Current Issues in Molecular Biology, 2023)
